Ends that are not written are not given here.

Holding throughout (format): in vivo, rat
Assay [1] relates to axotomized retinal ganglion cells (RGCs). The experiment in a line: Optic nerve transection (axotomy): RGC survival at 14 days. As to the method: Optic nerve transection was performed as previously described (Koeberle and Ball 1998; Koeberle and Bahr 2008; Koeberle, Wang et al. 2010; Magharious, D'Onofrio et al. 2011; Magharious, D'Onofrio et al. 2011; Monnier, D'Onofrio et al. 2011). Animals were placed in a stereotaxic frame and anesthetized with Isoflurane (2%; 0.8 L/min oxygen flow rate) delivered through a gas anesthesia mask. Lidocaine eye drops were used to anesthetize the cornea and ophthalmic eye ointment was applied to the cornea to prevent desiccation during surgery. […] In order to allow access to the optic nerve and surrounding dura mater sheath, the eye was rotated laterally by applying traction to the extraocular muscles. The dural sheath surrounding the optic nerve was cut longitudinally, to avoid damaging blood vessels supplying the retina. The optic nerve was gently lifted from the meningeal sheath and transected within 2 mm of the back of the eye. In order to retrogradely label RGCs, gelfoam soaked in 2% Fluorogold (Sigma) was placed over the transected optic nerve stump. The orbital contents were returned to their original location and the initial incision was closed. The optic nerve crush procedure was performed using a similar approach; however, the optic nerve was crushed using fine self-closing forceps for 6 seconds as previously described (Magharious, D'Onofrio et al. 2011; Monnier, D'Onofrio et al. 2011). The orbital contents were then similarly returned to their original location and the initial incision was closed. Following surgery, rats were placed in a recovery cage under a heat lamp and given Ketoprofen to ease post-surgical recovery.
The procedures for intraocular and optic nerve injections have been previously described (Koeberle and Ball 1998; Koeberle and Bahr 2008; Koeberle, Wang et al. 2010; Magharious, D'Onofrio et al. 2011; Magharious, D'Onofrio et al. 2011; Monnier, D'Onofrio et al. 2011). Animals received intraocular injections of each peptide at 3 and 8 days postaxotomy, prior to the onset of RGC apoptosis which occurs at 4-5 days after axotomy. Animals were placed in a stereotaxic frame and anesthetized with isoflurane, delivered through a gas anesthetic mask. The cornea was anesthetized using Alcaine eye drops (Alcon) prior to intraocular injections. A pulled glass micropipette attached to a 10 μl Hamilton syringe via a hydraulic coupling through PEEK tubing was used to deliver 4 μl of a peptide solution (10 mg/ml) into the vitreous chamber of the eye, posterior to the limbus. Care was taken to prevent damage to the lens or anterior structures of the eye. The pipette was held in place for 5 seconds after injection and slowly withdrawn from the eye to prevent reflux. Injections were performed using a surgical microscope in order to visualize pipette entry into the vitreous chamber and confirm delivery of the injected solution.
To directly target RGCs, peptide solutions were injected into the transected optic nerve stump using a 10 microliter Hamilton syringe. A total of 5 microliters of peptide suspension (10 mg/ml) were injected. The majority of the injected fluid will reflux out of the optic nerve during this procedure, so the remaining pool of peptide suspension is left in place when returning the orbital contents to their original positions.
For intraperitoneal injections, 1 ml of saline containing 0.5 mg of dissolved peptide was delivered via a 25 gauge needle attached to a 5 ml syringe, following rapid anesthesia with isoflurane to incapacitate the animal.
For eye drop application of C-terminal peptides, animals were sedated with isoflurane and placed in a stereotaxic frame, in order to reduce the blink reflex. Twenty-five microliters of a peptide suspension (1 mg/ml) was delivered to the surface of the cornea using a micropipetter with a sterile micropipette tip. Eye drops were delivered once per day, on day 1, 2, 3, 4, 5, 6, and day 7 after axotomy. […]

Assay [2] has as its system middle cerebral artery occlusion (MCAO) in adult rats. Briefly: MCAO: brain edema of the injured hemisphere. Particulars: Arginine 9-mer-conjugated peptides; intravenous 1 mg/kg; 48 hours after MCAO; relative to control. The method, then:
(§1) In order to examine the effects of the peptide therapeutics described herein, a thromboembolic model of middle cerebral artery occlusion that closely mimics human ischemic brain stroke was used: a clotted segment of blood is injected into the origin of the middle cerebral artery to block blood flow in the corresponding vascular territory of the lateral cerebrum (Wang, Yang et al. 2001).
Following deep isoflurane anesthesia via a nose-cone, fur was shaved from the ventral aspect of the neck. The shaved skin was cleaned twice with alternating applications of Proviodine (iodine detergent solution) and 70% ethanol. Following a final application of Proviodine, the surgical field was draped and a midline incision made in the ventral skin and fascia of the neck. Under an operating microscope, the right common carotid artery (CCA), the right external carotid artery […], and the right internal carotid artery […] were carefully isolated and separated from the adjacent vagus nerve. […]
(§2) 48 hours after MCA occlusion isoflurane anesthetized rats were euthanized by decapitation. […] Infarct volumes were calculated from scanned images of the coronal surfaces of brain slices, using the following formula: Infarct volume=(volume of uninjured hemisphere−(volume of injured hemisphere−measured infarct volume))/volume of uninjured hemisphere)×100. […]

For assay [3] the test system is unchanged. The experiment in a line: Thromboembolic middle cerebral artery occlusion (MCAO): brain infarct volume (TTC staining). The settings on record: Arginine 9-mer-conjugated peptides; intravenous (tail-vein) 1 mg/kg; 48 hours after MCAO; relative to control. As to the method: as §1
(§3) Following deep isoflurane anesthesia via a nose-cone, fur was shaved from the ventral aspect of the neck. The shaved skin was cleaned twice with alternating applications of Proviodine (iodine detergent solution) and 70% ethanol. Following a final application of Proviodine, the surgical field was draped and a midline incision made in the ventral skin and fascia of the neck. Under an operating microscope, the right common carotid artery (CCA), the right external carotid artery […], and the right internal carotid artery […] were carefully isolated and separated from the adjacent vagus nerve. A 6-0 silk suture was loosely tied at the origin of the ECA, and another suture was used to ligate the ECA distally. A sterile modified PE 10 catheter was introduced into the lumen of the right ECA via a small puncture. Ten microliters of blood was withdrawn into the catheter and retained for 15 minutes to allow formation of a clot. The fresh autologous pre-formed clot was used for MCA occlusion. The right CCA and the right ICA were temporarily clamped using microvascular clips. The PE 50 catheter containing a 20 mm long fibrin rich clot was attached to 100 μl Hamilton syringe and introduced into the lumen of the external carotid artery via a small incision. The suture around the origin of the external carotid artery was tightened around the intraluminal catheter to prevent bleeding, and the microvascular clip on the internal carotid artery was removed. The catheter was gently advanced from the ECA into the lumen of the ICA and upwards to the origin of the middle cerebral artery (a total of 17 mm in distance from the bifurcation of the CCA). At this point, the end of the catheter is 1-2 mm away from the origin of the middle cerebral artery. Over 10 seconds, the clot (3.5 μl volume) was gently injected together with 5 μl of sterile saline within the catheter. The catheter was removed 5 minutes after injection, and the right ECA was ligated at its origin. […]
as §2

Assay [4] shares this test system. The experiment in a line: MCAO: neurological deficits (modified Bederson scoring system). Particulars: Arginine 9-mer-conjugated peptides; intravenous 1 mg/kg; scored 8, 24 and 48 hours after MCAO; relative to control. As to the method: as §1
as §3, with “origin. Body temperature was maintained at 37° C. with a heating pad for the duration of surgery, after which the surgical field was closed with 4-0 silk sutures. Subcutaneous injections of Buprenorphine (0.05 mg/kg) were administered to minimize post-surgical discomfort.” for “origin.”
Neurological deficits were recorded at 8, 24 and 48 hours after ischemic injury. Neurological deficits were determined using a modified Bederson scoring system. […]

[5] abbreviates: Arginine 9-mer (R9)-conjugated peptides, eye drops (1 mg/ml, 25 microliters) once per day, days 1-7 after axotomy, 14 days after axotomy.

As for “Kv2.1: R9-conjugated Kv2.1 C-terminal peptide HGSTRDQSI (SEQ ID NO:2) (also: R9 conjugated, site not given here; listed as Homo sapiens)”, in assay [1] (setting [5]), the “RGC survival relative to control” value is reported as “significantly enhanced RGC survival”. Besides, the “brain edema (swelling)” value in assay [2] is listed as “significantly reduced brain edema”. The brain infarct volume entry in assay [3] is given as “significantly reduced”. Moreover, the “neurological deficits (Bederson score)” value in assay [4] is reported as “significantly reduced neurological deficits”.

Take “PTEN: R9 (RRRRRRRRR)-conjugated rat PTEN phosphatase C-terminal peptide DQHSQITKV (SEQ ID NO:1) (RRRRRRRRRDQHSQITKV)”: in assay [1] (setting [5]), the “RGC survival relative to control” value was “significantly enhanced RGC survival”. In addition, the brain infarct volume result in assay [3] is on record as “significantly reduced”. For the same substance, the “neurological deficits (Bederson score)” value in assay [4] is listed as “significantly reduced neurological deficits”.

In the case of “hPTEN: R9-conjugated human PTEN phosphatase C-terminal peptide DQHTQITKV (SEQ ID NO:9)”, the “RGC survival relative to control” value in assay [1] (setting [5]) is reported as “significantly enhanced RGC survival”. The brain infarct volume result in assay [3] is “significantly reduced”. Moreover, the “neurological deficits (Bederson score)” value in assay [4] is recorded as “significantly reduced neurological deficits”.

As to “iNOS: R9-conjugated iNOS C-terminal peptide LEEPKGTRL (SEQ ID NO:8), MCAO tests (also: R9 conjugated, site not given here; listed as Homo sapiens)”, in assay [1] (14 days postaxotomy, TAT-conjugated peptide, intraocular injection 10 mg/ml at 3 and 8 days), the “increase in RGC survival compared to controls” value is 2 fold. The “RGC survival relative to control” value is recorded as “little or no effect” in assay [1] (14 days postaxotomy, TAT-conjugated peptide, intraperitoneal (IP) injections, 500 μg per injection) and “little or no effect” in assay [1] (14 days postaxotomy, TAT-conjugated peptide, nerve injection). Besides, the “brain edema (swelling)” value in assay [2] is reported as “significantly reduced brain edema”. In assay [3], the brain infarct volume entry is reported as “significantly reduced”. In addition, in assay [4], the “neurological deficits (Bederson score)” value is “significantly reduced neurological deficits”.
